# Test results: patent US20260035407A1, “CYCLIC PEPTIDE DERIVATIVE, METHOD FOR PRODUCING SAME, AND COMPOSITION” (priority 2022, published 2026)
# System: Mouse astrocytes
# Experiment: Cell proliferation assay (BrdU method) on mouse astrocytes
# Format: cell-based
# Conditions: Astrocyte; mouse astrocytes, compound concentration 50 μM, 24 hours treatment in serum-free DMEM, BrdU; read-out: Cell proliferation activity, proliferative activity (%)
# Experimental: A screening test regarding the mouse astrocyte proliferation action of the compound synthesized in the Example described above was performed.
# • Cells: Mouse astrocytes • Manufacturer: Cosmo Bio • Catalog No.: AST02C • Medium: 10% FBS, 1% PS, DMEM
# • Cell proliferation assay (BrdU method)
# Mouse astrocytes were put into sleep in a T-75 flask using a medium (10% FBS, 1% Penicillin-Streptomycin, DMEM (Low Glucose)) and cultured in a CO2 incubator (37° C., 5% CO2, ambient O2, wet, and the same applies below) for 4 days. Medium exchange was performed on the second day after sleep onset. The cells were detached using Trypsin-EDTA (0.05%) and phenol red, neutralized with a medium, and centrifuged (180×g, RT, 5 minutes), then seeded in a 96-well plate at 20,000 cells/0.1 mL/well using a medium, and cultured in a CO2 incubator. On the next day, the medium was replaced with serum-free DMEM (Low Glucose), and the cells were further cultured in a CO2 incubator for 24 hours.
# Next, the medium was replaced with serum-free DMEM (Low Glucose) to which the compound was added or with compound-free-serum-free DMEM (Low Glucose), and the cells were further cultured in a CO2 incubator for 24 hours to treat the cells with the compound.
# After completion of the compound treatment, cell proliferation assay was performed using Cell Proliferation ELISA, BrdU (colometric) (MERCK, Cat. No. 11647229001). 10 μL of a BrdU labeling solution (prepared by adding a BrdU-labeled reagent to a test substance-treated medium in an amount of 1/100 vol) was added thereto, and the mixture was cultured in a CO2 incubator for 4 hours. Next, after removing the medium, FixDenat was added at 200 μL/well and incubated at room temperature for 30 minutes. Next, FixDenat was removed and a POD-labeled anti-BrdU antibody reaction solution (prepared by adding 1/100 vol of a POD-labeled anti-BrdU antibody stock solution to an antibody diluent) was added at 100 μL/well, and the cells were incubated at room temperature for 2 hours. Next, antibodies were removed, and the wells were washed 3 times with 200 μL/well of a washing liquid. After washing, 100 μL/well of a substrate solution was added, incubation was performed at room temperature for 30 minutes, and an absorbance (370 nm, control wavelength 492 nm) was measured with a plate reader. A difference between the test substance-free group and the test substance-treated group was verified by Dunnett's test in which the test substance-free group was used as a control. The significance level was 5% for both groups.
row,SMILES,activity at 50 µM
1,CN[C@H]1Cc2ccc(O)c(c2)OC[C@@H](C(=O)N[C@@H](CCC(=O)O)C(=O)O)NC(=O)[C@H](C(C)C)NC1=O [Compound 5],90 to 110%

# Same assay, conditions: Astrocyte; mouse astrocytes, compound concentration 100 μM, 24 hours treatment in serum-free DMEM, BrdU; read-out: Cell proliferation activity, proliferative activity (%)
row,SMILES,activity at 100 µM
1,CC(C)[C@@H]1NC(=O)[C@@H](N)Cc2ccc(O)c(c2)OC[C@@H](C(=O)N[C@@H](CCC(=O)O)C(=O)O)NC1=O [Compound 8],90 to 110%

# Same assay, conditions: Astrocyte; mouse astrocytes, compound concentration 200 μM, 24 hours treatment in serum-free DMEM, BrdU; read-out: Cell proliferation activity, proliferative activity (%)
row,SMILES,activity at 200 µM
1,CN[C@H]1Cc2ccc(O)c(c2)OC[C@@H](C(=O)N[C@@H](CCC(=O)O)C(=O)O)NC(=O)CNC1=O [Compound 3],90 to 110%
2,CN[C@H]1Cc2ccc(O)c(c2)OC[C@@H](C(=O)N[C@@H](CC(=O)O)C(=O)O)NC(=O)CNC1=O [Compound 11],110 to 130%

# Same assay, conditions: Astrocyte; mouse astrocytes, compound concentration 400 μM, 24 hours treatment in serum-free DMEM, BrdU; read-out: Cell proliferation activity, proliferative activity (%)
row,SMILES,activity at 400 µM
1,CN[C@H]1Cc2ccc(O)c(c2)O[C@@H](C)[C@@H](C(=O)N[C@@H](CCC(=O)O)C(=O)O)NC(=O)CNC1=O [Compound 4],90 to 110%
2,CN[C@H]1Cc2ccc(O)c(c2)O[C@@H](C)[C@@H](C(=O)N[C@@H](CC(=O)O)C(=O)O)NC(=O)CNC1=O [Compound 12],110 to 130%
3,N[C@H]1Cc2ccc(O)c(c2)OC[C@@H](C(=O)N[C@@H](CCC(=O)O)C(=O)O)NC(=O)CNC1=O [Compound 7],90 to 110%

# Same assay, conditions: Mus musculus, Astrocyte, 24 h, read-out: Cell proliferation activity, proliferative activity (%)
SMILES,activity at 200 µM,activity at 25 µM,activity at 50 µM,activity at 100 µM,activity at 1000 µM
CC[C@@]1(C)Oc2cc(ccc2O)C[C@H](NC)C(=O)N[C@@H](C(C)C)C(=O)N[C@@H]1C(=O)N[C@H](CCC(=O)O)C(=O)O [Compound 20],90 to 110%,–,–,–,–
CC[C@@]1(C)Oc2cc(ccc2O)C[C@H](NC)C(=O)N[C@@H](C(C)C)C(=O)N[C@@H]1C(=O)N[C@@H](CCC(=O)O)C(=O)O [Compound 1],–,> 150%,–,–,–
CC[C@@]1(C)Oc2cc(ccc2O)C[C@H](NC)C(=O)N[C@@H](Cc2ccc(O)cc2)C(=O)N[C@@H]1C(=O)N[C@@H](CCC(=O)O)C(=O)O [Compound 29],90 to 110%,–,–,–,–
CC[C@@]1(C)Oc2cc(ccc2O)C[C@H](NC)C(=O)N[C@H](C(C)C)C(=O)N[C@@H]1C(=O)N[C@@H](CC(=O)O)C(=O)O [Compound 45],–,–,90 to 110%,–,–
CC[C@@]1(C)Oc2cc(ccc2O)C[C@H](NC)C(=O)N(C)[C@@H](C(C)C)C(=O)N[C@@H]1C(=O)N[C@@H](CC(=O)O)C(=O)O [Compound 41],–,–,90 to 110%,–,–
CC[C@@]1(C)Oc2cc(ccc2O)C[C@H](NC)C(=O)N[C@@H](C)C(=O)N[C@@H]1C(=O)N[C@@H](CCC(=O)O)C(=O)O [Compound 48],–,–,–,110 to 130%,–
CC[C@@]1(C)Oc2cc(ccc2O)C[C@H](NC)C(=O)N[C@@H](C(C)C)C(=O)N[C@@H]1C(=O)N[C@H](CC(=O)O)C(=O)O [Compound 21],–,–,90 to 110%,–,–
CC[C@@]1(C)Oc2cccc(c2)C[C@H](NC)C(=O)N[C@@H](C(C)C)C(=O)N[C@@H]1C(=O)N[C@@H](CCC(=O)O)C(=O)O [Compound 14],110 to 130%,–,–,–,–
CC[C@@]1(C)Oc2cc(ccc2O)C[C@H](NC)C(=O)N[C@@H](CCCNC(=N)N)C(=O)N[C@@H]1C(=O)N[C@@H](CCC(=O)O)C(=O)O [Compound 31],–,–,–,110 to 130%,–
CC[C@H](C)[C@@H]1NC(=O)[C@@H](NC)Cc2ccc(O)c(c2)O[C@](C)(CC)[C@@H](C(=O)N[C@@H](CCC(=O)O)C(=O)O)NC1=O [Compound 50],–,–,130 to 150%,–,–
CC[C@@]1(C)Oc2cc(ccc2O)C[C@H](NC)C(=O)N[C@@H](CCC(=O)O)C(=O)N[C@@H]1C(=O)N[C@@H](CCC(=O)O)C(=O)O [Compound 25],–,–,90 to 110%,–,–
CC[C@@]1(C)Oc2cc(ccc2O)C[C@H](N(C)C)C(=O)N[C@@H](CCC(=O)O)C(=O)N[C@@H]1C(=O)N[C@@H](CCC(=O)O)C(=O)O [Compound 40],–,–,90 to 110%,–,–
CC[C@@]1(C)Nc2cc(ccc2O)C[C@H](NC)C(=O)N[C@@H](C(C)C)C(=O)N[C@@H]1C(=O)N[C@@H](CCC(=O)O)C(=O)O [Compound 22],90 to 110%,–,–,–,–
CN[C@H]1Cc2ccc(O)c(c2)OC(C)(C)[C@@H](C(=O)N[C@@H](CC(=O)O)C(=O)O)NC(=O)[C@H](C(C)C)NC1=O [Compound 17],–,90 to 110%,–,–,–
CC[C@@]1(C)Oc2cc(ccc2O)C[C@H](NC)C(=O)N[C@@H]([C@@H](C)O)C(=O)N[C@@H]1C(=O)N[C@@H](CCC(=O)O)C(=O)O [Compound 28],–,–,110 to 130%,–,–
CC[C@@]1(C)Oc2cc(ccc2O)C[C@H](NC)C(=O)N[C@@H](CO)C(=O)N[C@@H]1C(=O)N[C@@H](CCC(=O)O)C(=O)O [Compound 27],90 to 110%,–,–,–,–
CC[C@@]1(C)Oc2cc(ccc2O)C[C@H](NC)C(=O)N[C@@H](C(C)C)C(=O)N[C@@H]1C(=O)N[C@@H](CC(=O)O)C(=O)O [Compound 9],> 150%,–,–,–,–

SMILES,activity at 200 µM,activity at 25 µM,activity at 50 µM,activity at 100 µM,activity at 1000 µM
CC[C@@]1(C)Oc2cc(ccc2O)C[C@H](NC)C(=O)N[C@@H](CC(C)C)C(=O)N[C@@H]1C(=O)N[C@@H](CCC(=O)O)C(=O)O [Compound 49],110 to 130%,–,–,–,–
CC[C@@]1(C)Oc2cc(ccc2OC)C[C@H](NC)C(=O)N[C@@H](C(C)C)C(=O)N[C@@H]1C(=O)N[C@@H](CCC(=O)O)C(=O)O [Compound 37],–,–,–,110 to 130%,–
CC[C@@]1(C)Oc2cccc(c2)C[C@H](N)C(=O)NCC(=O)N[C@@H]1C(=O)N[C@@H](CCC(=O)O)C(=O)O [Compound 13],110 to 130%,–,–,–,–
CN[C@H]1Cc2ccc(O)c(c2)OC(C)(C)[C@@H](C(=O)N[C@@H](CCC(=O)O)C(=O)O)NC(=O)[C@H](C(C)C)NC1=O [Compound 16],130 to 150%,–,–,–,–
CC[C@@]1(C)Oc2cc(ccc2O)C[C@H](N)C(=O)N[C@@H](C(C)C)C(=O)N[C@@H]1C(=O)N[C@@H](CC(=O)O)C(=O)O [Compound 15],90 to 110%,–,–,–,–
CC(C)[C@@H]1NC(=O)[C@@H](N)Cc2ccc(O)c(c2)OC(C)(C)[C@@H](C(=O)N[C@@H](CCC(=O)O)C(=O)O)NC1=O [Compound 19],110 to 130%,–,–,–,–
CC[C@@]1(C)Oc2cc(ccc2O)C[C@H](N(C)C)C(=O)N[C@@H](C(C)C)C(=O)N[C@@H]1C(=O)N[C@@H](CC(=O)O)C(=O)O [Compound 39],–,–,–,130 to 150%,–
CC[C@@]1(C)Oc2cc(ccc2O)C[C@H](NC)C(=O)N[C@@H](C(C)C)C(=O)N[C@@H]1C(=O)N(C)[C@@H](CC(=O)O)C(=O)O [Compound 47],130 to 150%,–,–,–,–
CC[C@@]1(C)Oc2cc(ccc2O)C[C@H](N(C)C)C(=O)N[C@@H](C(C)C)C(=O)N[C@@H]1C(=O)N[C@@H](CCC(=O)O)C(=O)O [Compound 23],–,–,–,–,130 to 150%
CC[C@@]1(C)Oc2cc(ccc2O)C[C@H](NC)C(=O)N[C@@H](C(C)C)C(=O)N(C)[C@@H]1C(=O)N[C@@H](CC(=O)O)C(=O)O [Compound 44],110 to 130%,–,–,–,–
CC[C@@]1(C)Oc2cc(ccc2O)C[C@H](NC)C(=O)NCC(=O)N[C@@H]1C(=O)N[C@@H](CC(=O)O)C(=O)O [Compound 10],–,–,–,110 to 130%,–
CC[C@@]1(C)Oc2cc(ccc2O)C[C@H](NC)C(=O)NCC(=O)N[C@@H]1C(=O)N[C@@H](CCC(=O)O)C(=O)O [Compound 2],–,110 to 130%,–,–,–
CC[C@@]1(C)Oc2cc(ccc2O)C[C@H](NC)C(=O)N(C)[C@@H](C(C)C)C(=O)N[C@@H]1C(=O)N[C@@H](CCC(=O)O)C(=O)O [Compound 42],130 to 150%,–,–,–,–
CC[C@@]1(C)Oc2cc(ccc2O)C[C@H](N)C(=O)N[C@@H](C(C)C)C(=O)N[C@@H]1C(=O)N[C@@H](CCC(=O)O)C(=O)O [Compound 6],110 to 130%,–,–,–,–
CC[C@@]1(C)Oc2cc(ccc2O)C[C@H](NC)C(=O)N[C@@H](C(C)C)C(=O)N[C@@H]1C(=O)NCCCC(=O)O [Compound 18],–,–,90 to 110%,–,–
CC[C@@]1(C)Oc2cc(ccc2O)C[C@H](NC)C(=O)N[C@@H](C(C)C)C(=O)N(C)[C@@H]1C(=O)N[C@@H](CCC(=O)O)C(=O)O [Compound 43],–,–,–,110 to 130%,–
CC[C@@]1(C)Oc2cc(ccc2O)C[C@H](NC)C(=O)N[C@@H](Cc2ccccc2)C(=O)N[C@@H]1C(=O)N[C@@H](CCC(=O)O)C(=O)O [Compound 24],130 to 150%,–,–,–,–
